Entries after “also recorded” stand apart in the source; their conditions may differ.
Assays:
[1] = metformin without FORMULA A
Description: They were started on metformin 500 mg twice a day and was instructed to measure their fasting blood sugar on a daily basis. Over the course of 7 days they were instructed to increase metformin to 1000 mg twice a day.

[2] = cited from earlier work
[3] = parameters: key: ↑indicates an increase is reported; ↓ indicates that a decrease is reported; conditions: reported in the references of Table 6, cited from earlier work

Row | Compound | stools / diarrhea on metformin [1] | weight loss ([2]; approximate) | incidence of diarrhea in diabetic patients taking the drug ([2]; compared to only 6% of diabetic patients not taking metformin) | Function: TG ([3]; TG is triglyceride) | Function: GLP-1 [3] | Function: PYY [3] | Function: ghrelin [3] | Function: satiety [3] | Function: LDL chol [3] | Function: hunger [3]
1 | CN(C)C(=N)N=C(N)N [metformin] | persistent watery stools; also recorded: Diarrhea | 2 to 3 kg | 20% | – | – | – | – | – | – | –
2 | Inulin | – | – | – | ↓ | ↑ | ↑ | ↓ | ↑ | – | –
3 | β-Glucan | – | – | – | – | ↑ | ↑ | ↓ | ↑ | ↓ | ↓
